Data reported in patent publication US20230398101A1, “Co-agents as Therapy Against Anaerobic Pathogens” (priority 2022, published 2023).
Where two headings read alike, the source gives them in different places.

What was measured:
Type in all cases: cell-based
Clostridium perfringens = experiment: microbe, parasite or virus in culture; conditions: for MIC vs clinical breakpoint (susceptibility): anaerobic (Table 17)
[1] = tested on: Peptostreptococcus anaerobius; experiment: Anaerobic agar-dilution AST (MIC, checkerboard FIC); conditions: Peptostreptococcus anaerobious 807256
Cutibacterium acnes = experiment: as above
Streptococcus mutans = experiment: as above; conditions: strain UA 159, anaerobic
Bacteroides fragilis = experiment: as above; conditions: for MIC vs clinical breakpoint (susceptibility): anaerobic (Table 17)
Bacteroides ovatus = experiment: as above
[2] = tested on: Bacteroides thetaiotaomicron; experiment: microbe, parasite or virus in culture; conditions: for MIC: anaerobic
[3] = tested on: Parabacteroides distasonis; experiment: Anaerobic agar-dilution AST (MIC, checkerboard FIC)
Prevotella intermedia = experiment: as above
Escherichia coli = experiment: Aerobic agar-dilution AST of facultative anaerobes (MIC, checkerboard FIC)
Pseudomonas aeruginosa = experiment: as above
[4] = tested on: Lactobacillus delbrueckii; experiment: AST (MIC) of beneficial or mutualistic facultative anaerobic bacteria
Lactobacillus paracasei = experiment: as above; conditions: Lacticaseibacillus paracasei
Enterococcus faecium = experiment: Aerobic agar-dilution AST of facultative anaerobes (MIC, checkerboard FIC), also at pH 5, 7, 8; conditions: Enterococcus faecium 51559

For `C[C@@H]1O[C@@H]1P(=O)(O)O` [F, fosfomycin sodium], the “MIC vs clinical breakpoint (susceptibility)” value (shortened to “MIC vs clinical breakpoint”) (Clostridium perfringens; Clostridium perfringens 2-0246-4) was “+”, the “MIC vs clinical breakpoint” value (Clostridium perfringens; Clostridium perfringens 11-46) was “+” and the “MIC vs clinical breakpoint” value (Clostridium perfringens; Clostridium perfringens 11-50) was “+”. For the same compound, the “MIC vs clinical breakpoint” value (Clostridium perfringens; Clostridium perfringens 11-61) was “+”, the MIC (Clostridium perfringens; Clostridium perfringens 12-117, anaerobic) was 16 µg/mL and the “MIC vs clinical breakpoint” value (Clostridium perfringens; Clostridium perfringens 12-117) was “+”. It also gave an MIC (Clostridium perfringens; Clostridium perfringens, Clostridium perfringens 11-46, anaerobic) of 32 µg/mL, an MIC (Clostridium perfringens; Clostridium perfringens, Clostridium perfringens 11-50, anaerobic) of 8 µg/mL and an MIC (Clostridium perfringens; Clostridium perfringens, Clostridium perfringens 11-61, anaerobic) of 16 µg/mL. It also gave an MIC (Clostridium perfringens; Clostridium perfringens, Clostridium perfringens 12-117, anaerobic) of 32 µg/mL, an MIC (Clostridium perfringens; Clostridium perfringens, strain 2-0246-4, anaerobic) of 16 µg/mL and an MIC (Clostridium perfringens; Clostridium perfringens, strain 11-50, anaerobic) of 16 µg/mL. The MIC (Clostridium perfringens; Clostridium perfringens, strain 12-117, anaerobic) was 32 µg/mL, the MIC (Clostridium perfringens; strain 2-0246-4, anaerobic) was 8 µg/mL and the MIC (Clostridium perfringens; strain 11-50, anaerobic) was 8 µg/mL. For the same compound, the MIC (Clostridium perfringens; strain 12-117, anaerobic) was 16 µg/mL, the “MIC vs clinical breakpoint” value ([1]; anaerobic (Table 17)) was “+” and the MIC ([1]; Peptostreptococcus anaerobius, anaerobic) was 16 µg/mL. For the same compound, the MIC (Cutibacterium acnes; Cutibacterium acnes) was 128 µg/mL, the “MIC vs clinical breakpoint” value (Cutibacterium acnes; Cutibacterium acnes 6609, anaerobic (Table 17)) was “+” and the MIC (Cutibacterium acnes; Cutibacterium acnes, Cutibacterium acnes 6609, anaerobic, read-out: MIC) was 64 µg/mL. The MIC (Cutibacterium acnes; Cutibacterium acnes, strain 6609, anaerobic, read-out: MIC) was 32 µg/mL, the MIC (Cutibacterium acnes; strain 6609, anaerobic) was 64 µg/mL and the MIC (Streptococcus mutans) was 16 µg/mL. For the same compound, the MIC (Bacteroides fragilis; ATCC25285, Bacteroides fragilis ATCC 25285, anaerobic, read-out: MIC) was 64 µg/mL, the “MIC vs clinical breakpoint” value (Bacteroides fragilis; Bacteroides fragilis 638R) was “−” and the “MIC vs clinical breakpoint” value (Bacteroides fragilis; Bacteroides fragilis ATCC 23745) was “−”. For the same compound, the “MIC vs clinical breakpoint” value (Bacteroides fragilis; Bacteroides fragilis ATCC 25285) was “−”, the “MIC vs clinical breakpoint” value (Bacteroides fragilis; Bacteroides fragilis CLA267) was “−” and the “MIC vs clinical breakpoint” value (Bacteroides fragilis; Bacteroides fragilis O16M) was “−”. It also gave an MIC (Bacteroides fragilis; Bacteroides fragilis, ATCC23745, Bacteroides fragilis ATCC 23745, anaerobic) of over 128 µg/mL, an MIC (Bacteroides fragilis; Bacteroides fragilis, ATCC23745, strain ATCC 23745, anaerobic) of over 128 µg/mL and an MIC (Bacteroides fragilis; Bacteroides fragilis, ATCC25285, Bacteroides fragilis ATCC 25285, anaerobic) of over 128 µg/mL. It also gave an MIC (Bacteroides fragilis; Bacteroides fragilis, ATCC25285, strain ATCC 25285, anaerobic) of over 128 µg/mL, an MIC (Bacteroides fragilis; Bacteroides fragilis, Bacteroides fragilis 016M, anaerobic) of over 128 µg/mL and an MIC (Bacteroides fragilis; Bacteroides fragilis, Bacteroides fragilis 638R, anaerobic) of over 128 µg/mL. It also gave an MIC (Bacteroides fragilis; Bacteroides fragilis, Bacteroides fragilis CLA 267, anaerobic) of over 128 µg/mL, an MIC (Bacteroides fragilis; Bacteroides fragilis, strain 638R, anaerobic) of over 128 µg/mL and an MIC (Bacteroides fragilis; Bacteroides fragilis, strain CLA267, anaerobic) of over 128 µg/mL. It also gave an MIC (Bacteroides fragilis; Bacteroides fragilis, strain O16M (016M), anaerobic) of over 128 µg/mL, an MIC (Bacteroides fragilis; strain ATCC 25285, anaerobic) of 128 µg/mL and an MIC (Bacteroides fragilis; strain CLA267, anaerobic) of 128 µg/mL. For the same compound, the MIC (Bacteroides ovatus; Bacteroides ovatus ATCC 8483, anaerobic) was over 128 µg/mL, the “MIC vs clinical breakpoint” value (Bacteroides ovatus; Bacteroides ovatus ATCC 8483, anaerobic (Table 17)) was “−” and the MIC (Bacteroides ovatus; Bacteroides ovatus, ATCC8483) was over 128 µg/mL. For the same compound, the “MIC vs clinical breakpoint” value ([2]; Bacteroides thetaiotaomicron VPI5482, anaerobic (Table 17)) was “−”, the MIC ([2]; Bacteroides thetaiotaomicron VPI 5842) was over 128 µg/mL and the MIC ([2]; Bacteroides thetaiotaomicron, Bacteroides thetaiotaomicron VPI 5842) was 128 µg/mL. It also gave an MIC ([2]; Bacteroides thetaiotaomicron, strain VPI5482 (Tables 1, 2) / VPI 5842 (other tables)) of over 128 µg/mL, an MIC ([3]; Parabacteroides distasonis) of over 128 µg/mL and an MIC ([3]; Parabacteroides distasonis CLA 348, anaerobic) of over 128 µg/mL. The MIC (Prevotella intermedia; Prevotella intermedia, Prevotella intermedia 8071621, anaerobic) was over 128 µg/mL, the MIC (Prevotella intermedia; Prevotella intermedia, strain 807114, anaerobic) was over 128 µg/mL and the MIC (Prevotella intermedia; Prevotella intermedia, strain 8071621, anaerobic) was over 128 µg/mL. For the same compound, the MIC (Prevotella intermedia; Prevotella intermedia, strain 8071621, anaerobic, read-out: MIC) was 64 µg/mL, the MIC (Prevotella intermedia; strain 8071621, anaerobic) was 128 µg/mL and the MIC (Escherichia coli; ATCC25922, Escherichia coli ATCC 25922 (Table 15)) was 1 µg/mL. For the same compound, the MIC (Escherichia coli; ATCC25922, strain ATCC 25922, aerobic) was 2 µg/mL, the MIC (Escherichia coli; Escherichia coli 846446) was 1 µg/mL and the MIC (Escherichia coli; Escherichia coli 854535) was 4 µg/mL. The MIC (Escherichia coli; Escherichia coli 976657) was 16 µg/mL, the MIC (Escherichia coli; pH 5, Escherichia coli 857021, pH 5) was 2000 µg/mL and the MIC (Escherichia coli; pH 7, Escherichia coli 857021, pH 7) was 32000 µg/mL. The MIC (Escherichia coli; pH 7, Escherichia coli CDC-0089, pH 7) was 2000 µg/mL, the MIC (Escherichia coli; pH 8, Escherichia coli 25922, pH 8) was 8000 µg/mL and the MIC (Escherichia coli; pH 8, Escherichia coli 857021, pH 8) was 4000 µg/mL. For the same compound, the MIC (Escherichia coli; pH 8, Escherichia coli CDC-0089, pH 8) was 64000 µg/mL, the MIC (Escherichia coli; strain 846446, aerobic) was 2 µg/mL and the MIC (Escherichia coli; strain 846450, aerobic) was 4 µg/mL. The MIC (Escherichia coli; strain 854566, aerobic) was 16 µg/mL, the MIC (Escherichia coli; strain 857021, aerobic) was 2 µg/mL and the MIC (Escherichia coli; strain 863678, aerobic) was 2 µg/mL. For the same compound, the MIC (Escherichia coli; strain 863696, aerobic) was 8 µg/mL, the MIC (Escherichia coli; strain 928017, aerobic) was 2 µg/mL and the MIC (Escherichia coli; strain 959117, aerobic) was 2 µg/mL. For the same compound, the MIC (Escherichia coli; strain 961128, aerobic) was 2 µg/mL, the MIC (Escherichia coli; strain 975811, aerobic) was 4 µg/mL and the MIC (Escherichia coli; strain 976657, aerobic) was 4 µg/mL. It also gave an MIC (Escherichia coli; strain 977941, aerobic) of 4 µg/mL, an MIC (Escherichia coli; strain 996332, aerobic) of 4 µg/mL and an MIC (Pseudomonas aeruginosa; Pseudomonas aeruginosa) of 128 µg/mL. The MIC (Pseudomonas aeruginosa; Pseudomonas aeruginosa 945748) was 128 µg/mL, the MIC (Pseudomonas aeruginosa; Pseudomonas aeruginosa, pH 5, Pseudomonas aeruginosa 27853, pH 5, read-out: MIC) was 32000 µg/mL and the MIC (Pseudomonas aeruginosa; Pseudomonas aeruginosa, pH 5, Pseudomonas aeruginosa 975744, pH 5, read-out: MIC) was 32000 µg/mL. It also gave an MIC (Pseudomonas aeruginosa; Pseudomonas aeruginosa, pH 8, Pseudomonas aeruginosa 27853, pH 8, read-out: MIC) of 64000 µg/mL, an MIC (Pseudomonas aeruginosa; Pseudomonas aeruginosa, strain 880238, aerobic, read-out: MIC) of 8 µg/mL and an MIC (Pseudomonas aeruginosa; Pseudomonas aeruginosa, strain 889058, aerobic, read-out: MIC) of 64 µg/mL. For the same compound, the MIC (Pseudomonas aeruginosa; Pseudomonas aeruginosa, strain 906939, aerobic, read-out: MIC) was 64 µg/mL, the MIC [4] was over 128 µg/mL and the MIC (Lactobacillus paracasei) was over 128 µg/mL. It also gave an MIC (Enterococcus faecium; pH 5) of 16000 µg/mL and an MIC (Enterococcus faecium; pH 8) of 64000 µg/mL.
